Measurements taken from publication PMC7118210 (Frontiers in Pharmacology, 2020).
Like-named read-outs stand apart in the source and are kept apart here.

Experiment: Single ascending dose and food-effect pharmacokinetics of naringin tablets in healthy humans
Format: in vivo, human
Conditions: for Tmax / half-life / AUC(0-inf) / AUC(0-t) / Cmax / MRT last / MRT inf / effect of a high-fat diet on t1/2, Tmax, Cmax and AUC / CL: human; for Tmax / half-life / AUC(0-inf) / AUC(0-t) / Cmax / MRT last / MRT inf: plasma; for MRT last: read-out: MRT0-t; for MRT inf: read-out: MRT0-∞; for effect of a high-fat diet on t1/2, Tmax, Cmax and AUC: food-effect trial, naringin 160 mg p.o.
From the text: Participants were healthy males and females, 18 to 40 years old, ≥50 kg weight, 19 to 25 kg m^2 body mass index. The health condition of participants was considered good based on the screened medical history, physical examination, vital signs, electrocardiogram, and laboratory examination. […] Clinical laboratory test results (sodium, potassium, total protein, white blood and red blood cell counts, hematocrit, hemoglobin, platelet count, aspartate aminotransferase, alanine aminotransferase, gamma-glutamyl transferase, blood urea nitrogen, creatinine, total bilirubin, alkaline phosphatase, creatine kinase, lactate dehydrogenase, calcium, chloride, phosphorus, albumin, globulin, cholesterol, triglycerides, glucose, uric acid, and urinalysis) had to be within normal ranges, without other clinically significant abnormalities. During the study duration, participants were required to use barrier contraception with spermicide during sexual intercourse. During the trial, female participants were in the nonmenstrual, nonpregnant, and nonlactation periods, and they were nonsmokers. Participants were not planning a pregnancy within 6 months of the clinical trials, they communicated with the investigator, understood and complied with the study requirements, and signed informed consent.
Using the Statistical Analysis System (SAS) software (Version 9.4, SAS Institute Inc., Cary, NC, USA), subject randomization and blinding/masking were performed by statisticians from the Department of Health Statistics at the Second Military Medical University.
All blood samples were transferred into heparin-treated centrifuge tubes and centrifuged for 10 min at 4,000 rpm and 4°C. All human urine samples were mixed and transferred (4 ml) into storage tubes. All biological samples were stored at −80°C.
The optimal volume and activity in unit volume of enzyme solution [0.2 M acetic acid/water solution: 0.2 M ammonium acetate/water solution, 15:35 (v/v)] were determined through a pretest of the enzyme (rat plasma, 10 μl, 10 U μl^-1; dog plasma, 10 μl, 10 U μl^-1; human plasma, 20 μl, 20 U μl^-1; human urine, 10 μl, 10 U μl^-1). […] To each fecal sample, 9-fold methanol-normal saline (2:1, v/v) was added, mixed (18,000 rpm, 15 min) by vortexing and centrifuged (10 min, 9,000 rpm, 4°C). […] Then, all plasma, urine, and fecal samples were extracted with ethyl acetate (rat plasma, 800 μl; dog plasma, 1,000 μl; human plasma, 3,000 μl; human urine, 3,000 μl; human feces, 3,000 μl) for at least 3 min by vortexing, centrifuged for 10 min at 3,900 rpm and 4°C; supernatants were transferred into centrifuge tubes and dried with N2. The solid material was dissolved with acetonitrile-water (1:1, v/v) and injected into the ultra high-performance liquid chromatography coupled with triple quadrupole mass spectrometry (UHPLC/MS/MS) system as described below.
The analysis of nonclinical and clinical samples was performed with a UHPLC/MS/MS system that consisted of a Shimadzu Nexera X2 ultra high-performance liquid chromatography (UHPLC) (Shimadzu Corp., Kyoto, Japan) coupled with an AB Sciex API4000 triple-quadrupole mass spectrometry (MS/MS) system (AB Sciex, Foster City, CA, USA) equipped with an electrospray ionization source and controlled by Analyst (v. 1.6.2) software. […] The mobile phase consisted of 0.1% formic acid (v/v) in water (A) and 0.1% formic acid in acetonitrile (B) using a linear gradient of 90% A (0–0.5 min), 90 to 60% A (0.5–1.5 min), 60% to 40% A (1.5–3.5 min), 40% to 10% A (3.5–4.5 min), 10% A (4.5–5.5 min), 10% to 90% A (5.5–6.0 min), and 90% A (6.0–7.5 min) for plasma; and 80% A (0–0.2 min), 80 to 64% A (0.2–2.0 min), 64% to 63% A (2.0–4.4 min), 63% to 0% A (4.4–4.5 min), 0% A (4.5–5.5 min), 0% to 90% A (5.5–5.6 min), 90% A (5.6–5.9 min), 90% to 35% A (5.9–6.0 min), 35% A (6.0–6.2 min), 35 to 80% A (6.2–6.3 min), and 80% A (6.3–7.5 min) for urine and feces.

[1] = both sexes, oral, naringin in humans, clinical studies overall
[2] = both sexes, po, 40 mg, naringin 40 mg p.o. single dose
[3] = both sexes, po, 80 mg, naringin 80 mg p.o. single dose
[4] = both sexes, po, 160 mg, naringin 160 mg (high-fat diet) p.o. single dose
[5] = both sexes, po, 160 mg, naringin 160 mg p.o. single dose
[6] = both sexes, po, 320 mg, naringin 320 mg p.o. single dose
[7] = both sexes, po, 480 mg, naringin 480 mg p.o. single dose
[8] = female, po, 40 mg, naringin 40 mg p.o. single dose
[9] = female, po, 80 mg, naringin 80 mg p.o. single dose
[10] = female, po, 160 mg, naringin 160 mg p.o. single dose
[11] = female, po, 160 mg, naringin 160 mg p.o. single dose, high-fat diet group, female
[12] = male, po, 40 mg, naringin 40 mg p.o. single dose
[13] = male, po, 80 mg, naringin 80 mg p.o. single dose
[14] = male, po, 160 mg, naringin 160 mg p.o. single dose
[15] = male, po, 160 mg, naringin 160 mg p.o. single dose, high-fat diet group, male

With C[C@@H]1O[C@@H](O[C@H]2[C@H](Oc3cc(O)c4c(c3)O[C@H](c3ccc(O)cc3)CC4=O)O[C@H](CO)[C@@H](O)[C@@H]2O)[C@H](O)[C@H](O)[C@H]1O [naringin, Naringin] the Tmax [1] was 2.09 ± 1.15 h, the half-life [1] was 2.69 ± 1.77 h and the AUC(0-inf) [2] was 9.99 ± 4.22 ng·h/mL. It also gave an AUC(0-t) [2] of 7.61 ± 3.5 ng·h/mL, a Cmax [2] of 2.24 ± 0.67 ng/mL and a Tmax [2] of 1.97 ± 1.11 h. For the same compound, the half-life [2] was 2.48 ± 1.64 h, the MRT last [2] was 2.66 ± 0.443 h and the MRT inf [2] was 4.9 ± 1.69 h. It also gave an AUC(0-inf) [3] of 12.2 ± 3.19 ng·h/mL, an AUC(0-t) [3] of 9.27 ± 3.37 ng·h/mL and a Cmax [3] of 2.94 ± 1.17 ng/mL. It also gave a Tmax [3] of 2.09 ± 1.39 h, a half-life [3] of 1.9 ± 1.22 h and an MRT last [3] of 2.8 ± 0.543 h. For the same compound, the MRT inf [3] was 3.83 ± 1.69 h, the AUC(0-inf) [4] was 18.2 ± 5.81 ng·h/mL and the AUC(0-t) [4] was 12.8 ± 4.74 ng·h/mL. For the same compound, the Cmax [4] was 3.04 ± 1.15 ng/mL, the Tmax [4] was 2.66 ± 1.87 h and the half-life [4] was 3.11 ± 1.95 h. It also gave an MRT last [4] of 3.45 ± 1.22 h, an MRT inf [4] of 6.19 ± 2.77 h and an AUC(0-inf) [5] of 22.4 ± 9.36 ng·h/mL. For the same compound, the AUC(0-t) [5] was 15.7 ± 7.51 ng·h/mL, the Cmax [5] was 4.29 ± 2.63 ng/mL and the Tmax [5] was 2.5 ± 1.41 h. The half-life [5] was 3.64 ± 3.01 h, the MRT last [5] was 3.3 ± 1.12 h and the MRT inf [5] was 6.54 ± 4.41 h. The AUC(0-inf) [6] was 39.8 ± 32.2 ng·h/mL, the AUC(0-t) [6] was 37.5 ± 32.2 ng·h/mL and the Cmax [6] was 10.9 ± 12.4 ng/mL. The Tmax [6] was 1.66 ± 0.99 h, the half-life [6] was 2.51 ± 1.58 h and the MRT last [6] was 3.17 ± 0.677 h. It also gave an MRT inf [6] of 4.01 ± 1.05 h, an AUC(0-inf) [7] of 21.2 ± 7.95 ng·h/mL and an AUC(0-t) [7] of 19.4 ± 7.86 ng·h/mL. It also gave a Cmax [7] of 5.69 ± 2.8 ng/mL, a Tmax [7] of 1.66 ± 0.834 h and a half-life [7] of 2.01 ± 0.498 h. The MRT last [7] was 3.08 ± 0.704 h, the MRT inf [7] was 3.86 ± 0.779 h and the AUC(0-inf) [8] was 5.83 ± 0.737 ng·h/mL. For the same compound, the AUC(0-t) [8] was 4.64 ± 1.01 ng·h/mL, the Cmax [8] was 1.92 ± 0.516 ng/mL and the Tmax [8] was 2.67 ± 1.53 h. The half-life [8] was 1.49 ± 0.849 h, the AUC(0-inf) [9] was 11.5 ± 2.69 ng·h/mL and the AUC(0-t) [9] was 10.2 ± 2.28 ng·h/mL. It also gave a Cmax [9] of 3.3 ± 0.916 ng/mL, a Tmax [9] of 1.44 ± 0.657 h and a half-life [9] of 1.48 ± 0.448 h. The AUC(0-inf) [10] was 25.9 ± 8.47 ng·h/mL, the AUC(0-t) [10] was 17.8 ± 5.04 ng·h/mL and the Cmax [10] was 3.44 ± 1.08 ng/mL. For the same compound, the Tmax [10] was 3.25 ± 1.71 h, the half-life [10] was 4.57 ± 3.65 h and the AUC(0-inf) [11] was 20.9 ± 4.78 ng·h/mL. It also gave an AUC(0-t) [11] of 16.1 ± 3.27 ng·h/mL, a Cmax [11] of 3.78 ± 1.26 ng/mL and a Tmax [11] of 2.88 ± 2.02 h. The half-life [11] was 2.54 ± 1.96 h, the “effect of a high-fat diet on t1/2, Tmax, Cmax and AUC” value was “insignificantly altered” and the AUC(0-inf) [12] was 12.5 ± 3.18 ng·h/mL. The AUC(0-t) [12] was 9.39 ± 3.23 ng·h/mL, the Cmax [12] was 2.43 ± 0.727 ng/mL and the Tmax [12] was 1.55 ± 0.622 h. It also gave a half-life [12] of 3.07 ± 1.78 h, an AUC(0-inf) [13] of 13.2 ± 4.16 ng·h/mL and an AUC(0-t) [13] of 8.35 ± 4.36 ng·h/mL. It also gave a Cmax [13] of 2.58 ± 1.43 ng/mL, a Tmax [13] of 2.75 ± 1.71 h and a half-life [13] of 2.46 ± 1.83 h. For the same compound, the AUC(0-inf) [14] was 17.7 ± 9.93 ng·h/mL, the AUC(0-t) [14] was 13.7 ± 9.73 ng·h/mL and the Cmax [14] was 5.14 ± 3.6 ng/mL. It also gave a Tmax [14] of 1.75 ± 0.5 h, a half-life [14] of 2.41 ± 1.79 h and an AUC(0-inf) [15] of 14.7 ± 5.83 ng·h/mL. It also gave an AUC(0-t) [15] of 9.56 ± 3.57 ng·h/mL, a Cmax [15] of 2.3 ± 0.201 ng/mL and a Tmax [15] of 2.44 ± 1.98 h. The half-life [15] was 3.86 ± 2.02 h, the CL (naringin 40 mg p.o. single dose) was 1120 ± 605 mL/min/kg and the CL (naringin 80 mg p.o. single dose) was 1720 ± 832 mL/min/kg. For the same compound, the CL (naringin 160 mg (high-fat diet) p.o. single dose) was 2870 ± 1070 mL/min/kg, the CL (naringin 160 mg p.o. single dose) was 2400 ± 1030 mL/min/kg and the CL (naringin 320 mg p.o. single dose) was 3370 ± 2180 mL/min/kg. The CL (naringin 480 mg p.o. single dose) was 7950 ± 6200 mL/min/kg.
For O=C1C[C@@H](c2ccc(O)cc2)Oc2cc(O)cc(O)c21 [naringenin, Naringenin], the half-life (both sexes, oral, naringenin in humans, studies overall) was 2.6 ± 1.89 h, the “effect of a high-fat diet on t1/2, Tmax, Cmax and AUC” value was “insignificantly altered” and the lag-time in plasma (human plasma, after p.o. naringin) was 5.74 ± 2.38 h. For the same compound, the “time for concentrations to increase to Cmax after the lag-time” value (humans, after p.o. naringin) was “about 3.62 ± 3.19 h”.
